{
  "source": "paper PMC11539229",
  "about": "(Antimicrobial Agents and Chemotherapy, 2024)",
  "key": {"in vitro": {"assay": "in vitro", "format": "in vitro ADME, canine", "conditions": "dog, MDCK-MDR1", "experimental": "(§1) Studies were performed as described by Polli et al. ([31]), with minor modifications. GF120918 was used as the inhibitor of P-gp. Apical-to-basolateral and basolateral-to-apical transports were studied across MDR1-MDCKII cell monolayers in the absence and presence of the P-gp inhibitor GF120918, and the Papp (intrinsic apparent permeability) was estimated in both directions with or without inhibitor."}, "[1]": {"tested_on": "Madin-Darby canine kidney-MDR1", "assay": "in vitro", "format": "in vitro ADME", "experimental": "as §1"}, "P-glycoprotein (P-gp)": {"molecular_target": "T1, P-glycoprotein (P-gp) (Homo sapiens, UniProt P08183)", "T1 construct": "expressed in transfected cells; host or cells: MDR1-MDCKII (Madin-Darby canine kidney cells expressing MDR1)", "T1 sequence (P08183 whole entry)": "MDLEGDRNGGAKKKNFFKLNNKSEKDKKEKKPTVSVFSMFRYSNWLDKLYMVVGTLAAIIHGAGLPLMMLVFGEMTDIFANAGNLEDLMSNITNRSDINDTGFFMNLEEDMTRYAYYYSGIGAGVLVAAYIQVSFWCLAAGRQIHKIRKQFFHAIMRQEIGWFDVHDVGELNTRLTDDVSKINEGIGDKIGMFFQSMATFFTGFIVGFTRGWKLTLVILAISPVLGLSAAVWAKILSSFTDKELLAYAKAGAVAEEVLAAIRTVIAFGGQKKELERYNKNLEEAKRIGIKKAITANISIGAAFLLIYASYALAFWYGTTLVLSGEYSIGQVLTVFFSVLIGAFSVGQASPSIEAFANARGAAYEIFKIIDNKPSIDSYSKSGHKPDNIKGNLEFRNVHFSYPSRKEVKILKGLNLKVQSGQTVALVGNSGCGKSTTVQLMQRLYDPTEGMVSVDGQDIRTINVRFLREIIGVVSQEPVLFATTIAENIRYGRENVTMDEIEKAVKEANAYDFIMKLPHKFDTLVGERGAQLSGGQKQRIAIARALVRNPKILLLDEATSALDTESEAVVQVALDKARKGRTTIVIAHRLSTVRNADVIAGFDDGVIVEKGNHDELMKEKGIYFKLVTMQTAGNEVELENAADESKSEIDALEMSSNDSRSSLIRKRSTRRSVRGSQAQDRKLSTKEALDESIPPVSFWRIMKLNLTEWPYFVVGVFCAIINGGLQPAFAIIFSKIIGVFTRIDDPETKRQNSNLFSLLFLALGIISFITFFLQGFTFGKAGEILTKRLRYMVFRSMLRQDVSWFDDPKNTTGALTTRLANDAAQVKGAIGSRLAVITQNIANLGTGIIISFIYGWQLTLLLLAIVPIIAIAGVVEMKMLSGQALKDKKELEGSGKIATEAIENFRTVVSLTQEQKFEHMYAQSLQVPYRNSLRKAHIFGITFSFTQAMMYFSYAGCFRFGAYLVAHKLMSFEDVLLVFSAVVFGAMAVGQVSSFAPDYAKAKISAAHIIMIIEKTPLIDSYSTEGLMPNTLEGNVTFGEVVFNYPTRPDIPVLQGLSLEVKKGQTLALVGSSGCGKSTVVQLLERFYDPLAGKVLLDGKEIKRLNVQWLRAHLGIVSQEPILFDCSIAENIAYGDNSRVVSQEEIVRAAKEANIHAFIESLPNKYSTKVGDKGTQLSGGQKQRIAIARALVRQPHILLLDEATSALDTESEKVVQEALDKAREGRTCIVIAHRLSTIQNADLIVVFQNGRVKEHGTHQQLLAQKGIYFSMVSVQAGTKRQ", "assay": "Efflux ratio with and without P-gp inhibitor GF120918 in MDR1-MDCKII cells", "format": "in vitro ADME", "experimental": "The measured solubility in fasted state simulated intestinal fluid (FaSSIF) was high (Table 1). The permeability of GSK138 predicted from Madin-Darby canine kidney (MDCK) cells was also high (Table 1).\nas §1"}, "M. tuberculosis H37Rv [2]": {"tested_on": "M. tuberculosis H37Rv", "assay": "Extracellular MIC, broth dilution with resazurin", "format": "cell-based", "conditions": "Mycobacterium tuberculosis, read-out: Mtb MIC", "experimental": "MICs against the H37Rv strain were determined by broth dilution assay in Middlebrook 7H9 medium supplemented with 10% ADC. After incubating at 37°C for 6 days, 25-µL resazurin solution (one tablet in 30-mL sterile PBS) was added to each well. Following incubation at 37°C for two additional days, the lowest concentration of drug that inhibited 90% of resazurin conversion compared to internal DMSO control wells with no drug added was used to define MIC values."}, "[3]": {"tested_on": "H37Rv-Luc inside THP-1-derived macrophages", "assay": "Intracellular MIC in THP-1-derived macrophages, luciferase read-out", "format": "cell-based, M. tuberculosis", "conditions": "Mycobacterium tuberculosis, mean ± SD, read-out: Mtb intracell MIC"}, "HepG2 cells": {"tested_on": "HepG2 cells", "assay": "Cell health assay (three-parameter imaging)", "format": "cell-based, human", "experimental": "This is a three-parameter automated imaging cell-based assay to measure the cytotoxic effect of compounds in human liver-derived HepG2 cells. Using fluorescent staining, we measured the following key parameters in this assay: nuclear size, mitochondrial membrane potential and plasma membrane permeability. HepG2 cells (ATCC HB-8065) were incubated with the test compounds in 384-well plates. After 48 h, the staining cocktail was added. Hoechst 33342 was used to stain nuclei and quantify changes in nuclear morphology. Tetramethylrhodamine, methyl ester is a cationic dye that accumulates in healthy mitochondria that maintain a mitochondrial membrane potential and leaks out of mitochondria when the mitochondrial membrane potential is dissipated. TOTO-3 iodide labels nuclei of permeabilized cells and is used to measure plasma membrane permeability. Following 45 min of incubation with these stains, the plates were sealed using a black seal for reading on an INCell Analyzer 2000 (GE Healthcare). Each parameter measurement produces the percentages of cells which are “live” or “dead.” The IC50 is defined as the compound concentration that inhibits 50% of cell growth."}, "[4]": {"experimental": "The Ames assay was carried out as previously described ([34]) using all strains."}, "hERG": {"molecular_target": "hERG (Homo sapiens, UniProt Q12809)", "sequence (Q12809 whole entry)": "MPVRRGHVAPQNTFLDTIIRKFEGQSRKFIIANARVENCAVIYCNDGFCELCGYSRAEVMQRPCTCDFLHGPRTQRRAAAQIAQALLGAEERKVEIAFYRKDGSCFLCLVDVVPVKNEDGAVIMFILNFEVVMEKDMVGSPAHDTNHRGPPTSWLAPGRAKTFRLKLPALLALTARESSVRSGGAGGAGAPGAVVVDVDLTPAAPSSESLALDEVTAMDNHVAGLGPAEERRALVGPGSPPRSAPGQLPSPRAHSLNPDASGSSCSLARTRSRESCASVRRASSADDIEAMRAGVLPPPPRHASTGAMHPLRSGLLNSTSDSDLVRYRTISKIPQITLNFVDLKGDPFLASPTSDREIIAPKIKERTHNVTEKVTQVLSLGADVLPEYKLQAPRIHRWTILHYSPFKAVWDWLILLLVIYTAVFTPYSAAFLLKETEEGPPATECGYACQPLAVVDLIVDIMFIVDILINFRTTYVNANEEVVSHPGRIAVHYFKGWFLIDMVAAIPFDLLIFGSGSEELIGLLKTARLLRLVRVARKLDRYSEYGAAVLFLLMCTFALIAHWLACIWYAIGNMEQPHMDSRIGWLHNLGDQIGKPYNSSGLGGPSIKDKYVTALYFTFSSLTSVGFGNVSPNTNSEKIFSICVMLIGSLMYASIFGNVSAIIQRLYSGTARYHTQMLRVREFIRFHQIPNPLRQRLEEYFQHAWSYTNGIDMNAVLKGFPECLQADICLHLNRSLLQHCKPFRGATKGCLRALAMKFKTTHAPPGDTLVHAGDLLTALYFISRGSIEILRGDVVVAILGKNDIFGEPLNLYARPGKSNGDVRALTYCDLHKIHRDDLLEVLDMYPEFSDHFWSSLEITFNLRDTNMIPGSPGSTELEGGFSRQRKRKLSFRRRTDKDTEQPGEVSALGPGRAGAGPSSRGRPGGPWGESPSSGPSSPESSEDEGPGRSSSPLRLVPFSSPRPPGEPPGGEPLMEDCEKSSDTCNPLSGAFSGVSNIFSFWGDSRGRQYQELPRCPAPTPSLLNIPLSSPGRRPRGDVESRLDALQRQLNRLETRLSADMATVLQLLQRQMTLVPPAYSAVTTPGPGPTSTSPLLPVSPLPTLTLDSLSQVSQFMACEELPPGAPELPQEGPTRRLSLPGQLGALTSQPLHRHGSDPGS", "assay": "hERG Qpatch", "format": "biochemical", "experimental": "hERG activity was measured as previously described ([35])."}, "[5]": {"format": "in vitro ADME", "experimental": "To assess the susceptibility of GSK138 to P450-mediated phase I metabolism, metabolic stability was determined during incubation in CD1 mouse, Sprague Dawley rat, beagle dog, and human liver microsomes.\nHuman and animal microsomes and compounds were pre-incubated at 37°C prior to addition of NADPH to final protein concentration of 0.5 mg/mL and a final compound concentration of 0.5 µM. Quantitative analysis was performed using specific liquid chromatography-tandem mass spectrometry (LC-MS/MS) conditions. The half-life, elimination rate constant, and intrinsic clearance (mL/min/g tissue) were determined. The well-stirred model was used to translate to in vivo CI values (mL/min/kg)."}, "in vivo": {"assay": "in vivo", "parameters": "species or system C57BL/6 mice", "conditions": "iv, 1 mg/kg", "experimental": "To determine the pharmacokinetic parameters, GSK138 was administered intravenously [formulation: 5% dimethyl sulfoxide (DMSO)/20% Encapsin in saline solution] as a single bolus dose in C57BL/6 mice at a target dose of 1 mg/kg. All pharmacokinetic parameters were determined in whole blood (Table 1). A moderate clearance and a moderate volume of distribution were observed.\nSingle-dose pharmacokinetics experiments were performed in female C57BL/6 mice, 21–29 g, obtained from Charles River Laboratories (Wilmington, MA, USA) and housed in cages in groups of three animals with water and food ad libitum. Animals were maintained for 1 week before the experiment.\nThe compound was dissolved in 20% Encapsin (Sigma-Aldrich), 5% DMSO (Sigma-Aldrich) in saline solution (Sigma-Aldrich) for intravenous administration, and in 1% methylcellulose (Sigma-Aldrich) in water for oral administration.\nFor PK analysis, 25 µL of tail blood was collected by microsampling at 0.08, 0.25, 0.5, 1.0, 2.0, 4.0, 6.0, 8.0, and 24.0 h for intravenous pharmacokinetics and 0.25, 0.5, 1.0, 2.0, 4.0, 6.0, 8.0, and 24.0 h for oral pharmacokinetics."}, "M. tuberculosis H37Rv [6]": {"tested_on": "M. tuberculosis H37Rv", "assay": "Acute murine model of intratracheal infection", "format": "in vivo, C57BL/6 mice", "conditions": "oral once daily for 8 days"}, "M. tuberculosis H37Rv [7]": {"tested_on": "M. tuberculosis H37Rv", "format": "in vivo, BALB/c mice"}},
  "note": "Like-named read-outs stand apart in the source and are kept apart here.",
  "data": [
    {"smiles": "Cc1csc([C@](C)(O)c2nnc(Nc3cc(C)n(Cc4csc(C)n4)n3)s2)n1", "note": "[GSK138]", "values": [
      {"measurement": "Papp", "setting": "in vitro", "result": 37.4, "unit": "×10⁻⁶ cm/s"},
      {"measurement": "permeability predicted from MDCK cells", "setting": "[1]", "result": "high"},
      {"measurement": "P-gp substrate status from efflux ratio", "setting": "P-glycoprotein (P-gp)", "result": "P-gp substrate"},
      {"measurement": "MIC", "setting": "M. tuberculosis H37Rv [2]", "result": 1, "unit": "µM"},
      {"measurement": "MIC", "setting": "[3]", "result": 0.9, "unit": "µM"},
      {"measurement": "Cell health IC50 (nuclear size, mitochondrial membrane potential, and plasma membrane permeability)", "setting": "HepG2 cells; HepG2, 48 h", "result": ">199.5", "unit": "µM"},
      {"measurement": "effect in the cell health assay", "setting": "HepG2 cells; membrane, nuclear and mitochondrial damages", "result": "no effect up to the highest concentration tested (200 µM)"},
      {"measurement": "Ames test", "setting": "[4]", "result": "Negative"},
      {"measurement": "IC50", "setting": "hERG", "result": "> 30", "unit": "µM"},
      {"measurement": "in vitro clearance in liver microsomes", "setting": "[5]; dog", "result": "moderate"},
      {"measurement": "in vitro clearance in liver microsomes", "setting": "[5]; human", "result": "low"},
      {"measurement": "In vitro Clint dog", "setting": "[5]; microsomes", "result": 1.7, "unit": "mL/min/g tissue"},
      {"measurement": "In vitro Clint human", "setting": "[5]; microsomes", "result": 0.3, "unit": "mL/min/g tissue"},
      {"measurement": "In vitro Clint mouse", "setting": "[5]; microsomes", "result": 4.4, "unit": "mL/min/g tissue"},
      {"measurement": "In vitro Clint rat", "setting": "[5]; microsomes", "result": 3.5, "unit": "mL/min/g tissue"},
      {"measurement": "in vitro clearance in liver microsomes", "setting": "[5]; mouse", "result": "moderate"},
      {"measurement": "in vitro clearance in liver microsomes", "setting": "[5]; rat", "result": "moderate"},
      {"measurement": "Vd", "setting": "in vivo; female, C57BL/6, mouse", "result": "2.6 ± 0.3", "unit": "L/kg"},
      {"measurement": "clearance", "setting": "in vivo; female, C57BL/6, mouse", "result": "77.6 ± 16.8", "unit": "mL/min/kg"},
      {"measurement": "clearance", "setting": "in vivo; mouse", "result": "moderate"},
      {"measurement": "volume of distribution", "setting": "in vivo; mouse", "result": "moderate"},
      {"measurement": "effect on bacteria at the highest doses", "setting": "M. tuberculosis H37Rv [6]", "result": "net killing of the bacteria"},
      {"measurement": "ED99 (dose producing a 2-log10 reduction in CFUs compared to untreated control mice)", "setting": "M. tuberculosis H37Rv [6]; 95% CI 50–67", "result": 57, "unit": "mg/kg"},
      {"measurement": "EDmax (dose at which 90% of the maximum bactericidal effect was achieved)", "setting": "M. tuberculosis H37Rv [6]; 95% CI 125 to >290", "result": 167, "unit": "mg/kg"},
      {"measurement": "effect of addition to PaL, R + GSK656, or RZ + GSK656", "setting": "M. tuberculosis H37Rv [7]; experiment 3, GSK138 200 mg/kg", "result": "did not significantly increase the activity"},
      {"measurement": "effect of addition to BPaL, BPa or BPa + GSK656", "setting": "M. tuberculosis H37Rv [7]; experiment 3, GSK138 200 mg/kg, 4 weeks (P < 0.01) and 8 weeks (P < 0.0001)", "result": "significantly increased the activity"},
      {"measurement": "effect of addition to BPa", "setting": "M. tuberculosis H37Rv [7]; experiment 4, 8 weeks of treatment", "result": "additive effects"},
      {"measurement": "effect of addition to BPaL on bactericidal activity", "setting": "M. tuberculosis H37Rv [7]; experiment 5, 4 weeks of treatment", "result": "significantly increased the bactericidal activity"},
      {"measurement": "chromatographic logD", "setting": "physchem; pH 7.4, Chrom logD", "result": 3.39},
      {"measurement": "chromatographic logD", "setting": "physchem; pH 7.4, chrom logD", "result": 3.38}
    ]}
  ]
}
